Assay results reported in patent US20030008922A1, “Multiple drug resistance reversal agent” (priority 2002, published 2003).

Tests used:
[1] = biological target: T1, Pgp (Homo sapiens, UniProt P08183); experiment: Pgp ATPase activity (ATP-hydrolysis); type: biochemical; conditions: values >1 represent stimulation, values <1 represent inhibition
Protocol: (§1) Pgp ATPase stimulation activity was determined along with displacement of the prazosin analog, iodoarylazidoprazosin (^125IAAP). Ambudkar, S. V. Methods Enzymol 1998, 292: 504-514; Dey, S. et al. Methods Enzymol. 1998, 292: 318.
(§2) The effect of the homodimers of the present invention on ATPase activity and IAAP binding to Pgp are very potent. ATPase stimulation reaches a maximum at low concentration (1 μM) and steadily drops off as the concentration is increased (not shown). In contrast with the other homodimers, the X=5 compound slowly achieves maximum stimulation up to 50 μM and this level is maintained as the concentration increases. The other dimers are similar to the monomeric compounds where maximum stimulation is achieved and rapidly drops off as concentration increases. More surprising are the Pgp displacement of photoaffinity labeled substrate analog by the heterodimers. For example, with the heterodimer where X=12 is shown to bind tightly at 1.7 μM.

[2] = biological target: T1, Pgp; experiment: Inhibition of 125IAAP binding to Pgp (photoaffinity substrate displacement)
Protocol: as §1, §2

T1 sequence (P08183 whole entry): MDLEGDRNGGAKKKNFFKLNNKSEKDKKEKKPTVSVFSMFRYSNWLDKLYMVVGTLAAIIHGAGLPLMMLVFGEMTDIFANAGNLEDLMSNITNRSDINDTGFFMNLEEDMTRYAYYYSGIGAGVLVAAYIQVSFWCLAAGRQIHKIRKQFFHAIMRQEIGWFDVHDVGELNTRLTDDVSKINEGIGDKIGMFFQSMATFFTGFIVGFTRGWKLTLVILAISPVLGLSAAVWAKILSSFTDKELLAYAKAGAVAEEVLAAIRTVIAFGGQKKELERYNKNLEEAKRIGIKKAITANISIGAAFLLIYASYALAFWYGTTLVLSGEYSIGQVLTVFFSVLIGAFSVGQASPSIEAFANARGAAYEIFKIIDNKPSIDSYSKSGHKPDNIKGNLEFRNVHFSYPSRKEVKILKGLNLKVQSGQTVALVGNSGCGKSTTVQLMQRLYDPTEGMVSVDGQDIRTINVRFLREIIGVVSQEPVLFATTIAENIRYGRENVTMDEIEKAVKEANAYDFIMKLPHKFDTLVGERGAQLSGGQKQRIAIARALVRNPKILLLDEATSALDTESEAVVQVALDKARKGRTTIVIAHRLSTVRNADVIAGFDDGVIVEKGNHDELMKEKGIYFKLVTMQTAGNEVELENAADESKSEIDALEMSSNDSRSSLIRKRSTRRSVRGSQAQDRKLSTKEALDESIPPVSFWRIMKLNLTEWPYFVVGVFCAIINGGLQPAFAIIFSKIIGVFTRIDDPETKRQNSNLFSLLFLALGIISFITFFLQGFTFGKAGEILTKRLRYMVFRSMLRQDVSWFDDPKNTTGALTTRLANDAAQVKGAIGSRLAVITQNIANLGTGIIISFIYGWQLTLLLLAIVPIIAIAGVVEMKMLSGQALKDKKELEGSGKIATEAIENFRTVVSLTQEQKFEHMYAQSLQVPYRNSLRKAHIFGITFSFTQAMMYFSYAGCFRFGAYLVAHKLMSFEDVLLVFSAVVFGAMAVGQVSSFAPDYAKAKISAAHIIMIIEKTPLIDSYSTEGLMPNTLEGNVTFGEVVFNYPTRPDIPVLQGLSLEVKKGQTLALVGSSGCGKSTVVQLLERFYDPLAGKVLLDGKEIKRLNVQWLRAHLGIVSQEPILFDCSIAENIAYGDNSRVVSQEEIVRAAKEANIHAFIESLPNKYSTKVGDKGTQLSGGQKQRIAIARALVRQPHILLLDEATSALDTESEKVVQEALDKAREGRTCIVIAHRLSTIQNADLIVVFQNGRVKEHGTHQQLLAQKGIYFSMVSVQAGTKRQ

ATPase activity [1]: 0.34 fraction of control | Ki [2]: 7.6 µM
Compound: CC(=CCCC#CC=CC(C)C(O)C(C)=CCCc1ccc2ccccc2c1)C(=O)NCCOCCOCCOCCOCCOCCO (centres unmarked) [compound 16]
